Assay results reported in patent publication US20050009837A1, “Modulators of lipid metabolism and methods of use” (City of Hope, priority 2003, published 2005).

Experiments:
SREBP-1c expression = test: Real-time PCR of SREBP-1c expression in HepG2 cells; type: cell-based, human; conditions: Clotrimazole 10 μM plus T0901317 100 nM, 24 hours
Experimental: Real time PCR was then performed on cDNA derived from RNA isolated form the treated HepG2 cells as follows. Real time quantitative PCR assays were performed using an Applied Biosystems 7700 sequence detector (Applied Biosystems). Each reaction mixture contained 50 ng cDNA, 1.25 pmol each forward and reverse primer, and […] 2× SYBR Green PCR master mix (Applied Biosystems) in a final volume of 25 μl. The PCR conditions were 50° C. for 2 min, 95° C. for 10 min, and 40 cycles of 95° C. for 15 sec and 60° C. for 1 min. Samples were run in duplicate for each primer pair. Expression of glyceraldehyde-3-phosphate dehydrogenase (GAPDH) was analyzed in parallel as an internal control. Each sample was normalized to GAPDH and is represented in the Figure showing the results as arbitrary units with the expression levels in untreated cells assigned a value of one. The primer sequences are as follows: human SREBP-1c forward [NT] ID NO:1); human SREBP-1c reverse [NT] ID NO:2); human GAPDH forward [NT] ID NO:3) and human GAPDH reverse [NT] ID NO:4).

[1] = biological target: T1, LXRα-RXR heterodimers and receptor interaction domains of coactivator SRC1 (Homo sapiens, UniProt Q13133); test: LXR-coactivator association, VP-L-hLXRα / L-hRXRα / GAL4-SRC1 in CV-1 cells; type: cell-based; conditions: 20 μM, coactivator GAL4-SRC1, CV-1 cells
T1 construct: expressed in transfected cells; host or cells: CV-1 cells
T1 sequence (Q13133 209-447 limits assumed): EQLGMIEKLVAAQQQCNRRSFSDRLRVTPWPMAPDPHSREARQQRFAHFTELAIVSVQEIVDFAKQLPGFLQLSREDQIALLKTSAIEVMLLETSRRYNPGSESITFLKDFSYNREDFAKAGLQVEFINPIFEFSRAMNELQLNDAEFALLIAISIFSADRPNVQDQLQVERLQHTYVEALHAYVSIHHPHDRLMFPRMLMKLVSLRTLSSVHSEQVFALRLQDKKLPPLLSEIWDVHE
T1 sequence (P19793 227-458 partner limits assumed): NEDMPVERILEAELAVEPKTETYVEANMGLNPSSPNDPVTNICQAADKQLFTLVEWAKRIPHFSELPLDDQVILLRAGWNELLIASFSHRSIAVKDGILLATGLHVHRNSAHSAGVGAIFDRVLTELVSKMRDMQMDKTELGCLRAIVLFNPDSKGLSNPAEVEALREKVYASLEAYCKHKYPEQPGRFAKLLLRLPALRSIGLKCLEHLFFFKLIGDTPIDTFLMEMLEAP
Experimental: (§1) CV-1 cells were grown in DMEM supplemented with 10% resin-charcoal stripped fetal bovine serum, 50 U/ml penicillin G and 50 μg/ml streptomycin sulfate at 37° C. in 5% CO2. Cells were plated to 50-80% confluence one day prior to transfection using phenol red-free DMEM-FBS. The cells were transfected by lipofection using N-[1-(2,3-dioleoyloxy)propyl]-N,N,N-ammonium methyl sulfate according to manufacturer's instructions (Boehringer Mannheim).
(§2) Genes encoding the following full-length proteins, which are suitable for use in the studies described herein, were cloned into pCMX: human RXRα (Gene Bank accession X52773) and human LXRα (GenBank accession U22662). The cells were transfected with CMX-βgal and luciferase constructs. The CMX-βGal construct contained the ligand binding domain of human RXR (hRXRα) and the ligand binding domain of human LXRα (hLXRα) as indicated in FIG. 1. The luciferase reporter construct (LXREx3 TK-Luc) contained the herpes virus thymidine kinase promoter (−105/+51) linked to three copies of the response element LXRE. After transfection, the cells were treated with 20 μM of a synthetic azole test compound or vehicle alone for 40 hours in phenol red-free DMEM-FBS.
VP-L-hLXRα contains the transactivation domain of Herpes VP16, linked to the LBD of human LXRα, L-hRXRα is the LBD of human RXRα. UASGx4 TK-Luc was the reporter gene, and the assay additionally included the coactivator GAL4-SRC1. Treatment with 20 μM azole compound as indicated was able to inhibit interactions between LXRα-RXR heterodimers and the receptor interaction domains from the coactivator SRC1.

human CAR = human CAR (Homo sapiens, UniProt Q14994); conditions: cited from earlier work
[2] = biological target: T2, ligand binding domain of LXRα-RXR heterodimers (Homo sapiens, UniProt Q13133); test: LXR ligand binding domain mediated activity, UASGx4 TK-Luc reporter in CV-1 cells; type: cell-based; conditions: 20 μM
T2 construct: expressed in transfected cells; host or cells: CV-1 cells
T2 sequence (Q13133 209-447 limits assumed): T1 sequence (Q13133 209-447 limits assumed)
T2 sequence (P19793 227-458 partner limits assumed): T1 sequence (P19793 227-458 partner limits assumed)
Experimental: as §1
as §2, with “DMEM-FBS. After exposure to the candidate antagonist compounds, cells were harvested and assayed for luciferase and β-galactosidase activity.” for “DMEM-FBS.”
The reporter gene was UASGx4 TK-Luc.

LXRα = biological target: T3, LXRα (Homo sapiens, UniProt Q13133); test: Transient transfection assay Gal-hLXRα + RXR LBD, UASGx4 TK Luc reporter, CV-1 cells; type: cell-based
T3 construct: expressed in transfected cells; host or cells: CV-1 cells
T3 sequence (Q13133 209-447 limits assumed): T1 sequence (Q13133 209-447 limits assumed)
T3 sequence (P19793 227-458 partner limits assumed): T1 sequence (P19793 227-458 partner limits assumed)
Experimental: Synthetic compounds were screened in an effort to find more specific LXR inhibitors. CV-1 cells were maintained and transfected using known methods. Forman et al., Cell 81: 687-693, 1995. CV-1 cells were transiently transfected with Gal-hLXRα, the RXR LBD, the UASGx4 TK Luc reporter and CMX-β-gal as an internal control, either in standard or in lipid-stripped serum. After transfection, cells were treated for approximately 40 hours with phenol red-free DMEM-FBS containing the indicated compounds at the following concentrations: T0901317 (100 nM), Clotrimazole (10 μM), S883417(10 μM) and S100250 (10 μM), unless otherwise specified. After exposure to ligand, the cells were harvested and assayed for luciferase and β-galactosidase activity. The luciferase activity was normalized to the internal β-galactosidase control (reporter activity).
The ability of these compounds to repress LXRα and LXRβ was compared by transfecting CV-1 cells with either the RXR LBD alone or the RXR LBD together with either Gal-LXRα or Gal-LXRβ.
Transfections were performed as described above, with increasing concentrations of Clotrimazole.

human PXR = human PXR (Homo sapiens, UniProt O75469); conditions: cited from earlier work
PPARα = PPARα (Homo sapiens, UniProt Q07869); test: PPARα activity (data not shown); type: cell-based
Sequence of PPARα (Q07869 whole entry, species assumed): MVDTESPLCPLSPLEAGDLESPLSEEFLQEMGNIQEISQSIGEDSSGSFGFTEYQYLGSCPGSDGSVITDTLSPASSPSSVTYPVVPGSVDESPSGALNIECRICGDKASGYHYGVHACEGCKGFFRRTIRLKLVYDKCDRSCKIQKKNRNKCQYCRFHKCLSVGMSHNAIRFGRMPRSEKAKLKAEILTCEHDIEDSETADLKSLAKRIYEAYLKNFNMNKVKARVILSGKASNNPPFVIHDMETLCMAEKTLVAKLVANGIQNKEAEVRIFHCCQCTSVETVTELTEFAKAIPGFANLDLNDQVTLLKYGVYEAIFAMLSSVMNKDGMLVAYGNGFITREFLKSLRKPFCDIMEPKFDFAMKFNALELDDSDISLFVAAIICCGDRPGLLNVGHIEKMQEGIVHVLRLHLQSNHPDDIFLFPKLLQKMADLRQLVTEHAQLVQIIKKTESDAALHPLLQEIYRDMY

Sequence of human CAR (Q14994 whole entry, the tested form may be a part): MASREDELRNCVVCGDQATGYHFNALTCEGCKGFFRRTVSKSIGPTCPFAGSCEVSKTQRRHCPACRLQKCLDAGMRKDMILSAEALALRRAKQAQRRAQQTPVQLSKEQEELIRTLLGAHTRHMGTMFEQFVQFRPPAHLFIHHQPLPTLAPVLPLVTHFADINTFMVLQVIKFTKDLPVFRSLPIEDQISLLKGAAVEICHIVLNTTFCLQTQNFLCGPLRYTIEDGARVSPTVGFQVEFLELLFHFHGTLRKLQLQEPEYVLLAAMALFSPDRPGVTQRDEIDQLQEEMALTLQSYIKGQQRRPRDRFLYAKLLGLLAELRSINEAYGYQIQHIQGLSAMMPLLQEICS
Sequence of human PXR (O75469 whole entry): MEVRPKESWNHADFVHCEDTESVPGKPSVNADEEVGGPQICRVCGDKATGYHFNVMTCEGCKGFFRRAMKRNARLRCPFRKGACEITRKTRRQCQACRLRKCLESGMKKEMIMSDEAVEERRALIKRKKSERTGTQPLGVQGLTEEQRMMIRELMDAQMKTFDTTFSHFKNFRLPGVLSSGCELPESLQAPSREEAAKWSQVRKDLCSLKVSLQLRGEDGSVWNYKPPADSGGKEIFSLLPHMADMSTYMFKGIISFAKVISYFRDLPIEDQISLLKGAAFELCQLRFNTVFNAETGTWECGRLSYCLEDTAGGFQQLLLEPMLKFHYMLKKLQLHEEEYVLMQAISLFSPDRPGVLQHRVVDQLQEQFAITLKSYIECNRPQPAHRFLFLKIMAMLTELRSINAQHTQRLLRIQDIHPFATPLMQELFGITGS

Clc1ccccc1C(c1ccccc1)(c1ccccc1)n1ccnc1 [Clotrimazole]
SREBP-1c expression compared to T0901317 alone (SREBP-1c expression): significantly reduced | inhibition of LXR-coactivator association [1]: inhibition of LXR-coactivator association | activity on human CAR (human CAR): antagonizes | inhibition of constitutive activation by the LXRα-RXR ligand binding domain (UASGx4 TK-Luc) [2]: inhibit constitutive activation | repression of LXRα activity (LXRα; 10 μM, approximately 40 hours, lipid-stripped serum): powerful antagonist | antagonist potency LXRα compared with LXRβ (LXRα; dose-response, FIG. 5): more potent antagonist of LXRα than LXRβ | EC50 (LXRα; dose-response, increasing concentrations, read-out: EC50 for repression of LXRα constitutive activity): ~10 µM | activity on human PXR (human PXR): agonist | effect on PPARα activity (PPARα): no effect
